Assay results from ChEMBL document CHEMBL1201862, “PubChem BioAssay data set” (2004).
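Growth conditions: 96-well plates. Treatment: test compound, 48 hours, 5 concentrations. Analysis: linear interpolation between bracketing concentrations; unreached endpoints set to highest concentration. GI50 marks 50% less growth.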 Calls of active or inactive are those of the source. No stated cut-off is given here; in the data, active = GI50 up to about 1.1 µM and inactive = higher.

Tests used:
Test in all cases: growth of human tumour cells (NCI), 48 h
Malme-3M = system: Malme-3M
SF-295 = system: SF-295
Hs-578T = system: Hs-578T
TK-10 = system: TK-10
NCI/ADR-RES = system: NCI/ADR-RES
HCC 2998 = system: HCC 2998
SK-MEL-28 = system: SK-MEL-28
NCI-H460 = system: NCI-H460
KM12 = system: KM12
SF-539 = system: SF-539
MDA-N = system: MDA-N
COLO 205 = system: COLO 205
SK-MEL-5 = system: SK-MEL-5
RXF 393 = system: RXF 393
OVCAR-3 = system: OVCAR-3
MCF7 = system: MCF7
UACC-257 = system: UACC-257
MOLT-4 = system: MOLT-4
HCT-116 = system: HCT-116
BT-549 = system: BT-549

SMILES | GI50 (Malme-3M) | GI50 (SF-295) | GI50 (Hs-578T) | GI50 (TK-10) | GI50 (NCI/ADR-RES) | GI50 (HCC 2998) | GI50 (SK-MEL-28) | GI50 (NCI-H460) | GI50 (KM12) | GI50 (SF-539) | GI50 (MDA-N) | GI50 (COLO 205) | GI50 (SK-MEL-5) | GI50 (RXF 393) | GI50 (OVCAR-3) | GI50 (MCF7) | GI50 (UACC-257) | GI50 (MOLT-4) | GI50 (HCT-116) | GI50 (BT-549)
CC(=C\c1ccccc1)/C=C(\C#N)C(N)=O | > 10 µM (inactive) | > 10 µM (inactive) | > 10 µM (inactive) | > 10 µM (inactive) | > 10 µM (inactive) | > 10 µM (inactive) | > 10 µM (inactive) | > 10 µM (inactive) | > 10 µM (inactive) | > 10 µM (inactive) | > 10 µM (inactive) | > 10 µM (inactive) | > 10 µM (inactive) | > 10 µM (inactive) | > 10 µM (inactive) | > 10 µM (inactive) |  |  |  | 
COC(=O)C1CCC(=O)N1CN(C(C)=O)c1ccccc1Cl (stereo not drawn) | > 100 µM (inactive) | > 100 µM (inactive) | > 100 µM (inactive) | > 100 µM (inactive) | > 100 µM (inactive) | > 100 µM (inactive) | > 100 µM (inactive) | > 100 µM (inactive) | > 100 µM (inactive) | > 100 µM (inactive) | > 100 µM (inactive) | > 100 µM (inactive) | > 100 µM (inactive) | > 100 µM (inactive) | > 100 µM (inactive) | > 100 µM (inactive) | > 100 µM (inactive) | > 100 µM (inactive) | > 100 µM (inactive) | 
[N-]=[N+]=Nc1c([N+](=O)[O-])c(=O)n(-c2ccccc2)c2ccccc12 | 17 µM (inactive) | 27.9 µM (inactive) | 20 µM (inactive) | 14.2 µM (inactive) | 20.7 µM (inactive) | 61.5 µM (inactive) | 26.5 µM (inactive) | 30.6 µM (inactive) | 26.7 µM (inactive) | 25.5 µM (inactive) | 27.2 µM (inactive) | 21.1 µM (inactive) | 24.2 µM (inactive) | 20 µM (inactive) | 4.5 µM (inactive) | 20.7 µM (inactive) | 34.4 µM (inactive) | 21.4 µM (inactive) | 20.3 µM (inactive) | 
C=CCNC(=S)NC=C(C(N)=O)C(N)=O | > 100 µM (inactive) | > 100 µM (inactive) | > 100 µM (inactive) |  | > 100 µM (inactive) | > 100 µM (inactive) | > 100 µM (inactive) | > 100 µM (inactive) | > 100 µM (inactive) | > 100 µM (inactive) | > 100 µM (inactive) | > 100 µM (inactive) | > 100 µM (inactive) | > 100 µM (inactive) | 11.1 µM (inactive) | > 100 µM (inactive) | > 100 µM (inactive) | > 100 µM (inactive) | > 100 µM (inactive) | 
O=C(COc1ccc(OCC(=O)N2C(=O)CC(=O)N(c3ccccc3)C2=S)cc1)N1C(=O)CC(=O)N(c2ccccc2)C1=S | > 100 µM (inactive) | 56.6 µM (inactive) |  | > 100 µM (inactive) | > 100 µM (inactive) | 97.3 µM (inactive) | 87.3 µM (inactive) | 40.9 µM (inactive) | 27.4 µM (inactive) |  | 68.7 µM (inactive) | 61.2 µM (inactive) |  | 25.5 µM (inactive) |  | 45.9 µM (inactive) | 82.2 µM (inactive) | 41.8 µM (inactive) | 22.5 µM (inactive) | 78.7 µM (inactive)
O=C(CN1CCOCC1)c1ccc2c(c1)oc(=O)n2CCN1CCOCC1 | > 100 µM (inactive) | > 100 µM (inactive) | > 100 µM (inactive) |  | > 100 µM (inactive) |  | > 100 µM (inactive) |  | > 100 µM (inactive) | > 100 µM (inactive) | > 100 µM (inactive) | > 100 µM (inactive) | > 100 µM (inactive) | > 100 µM (inactive) | > 100 µM (inactive) | > 100 µM (inactive) |  | > 100 µM (inactive) | > 100 µM (inactive) | 
CCOCCOC(=O)C1CCC(=O)N1CN(C(C)=O)c1cc(OC)ccc1OC (stereo not drawn) | > 100 µM (inactive) | > 100 µM (inactive) | > 100 µM (inactive) | > 100 µM (inactive) | > 100 µM (inactive) |  | > 100 µM (inactive) | > 100 µM (inactive) | > 100 µM (inactive) | > 100 µM (inactive) | > 100 µM (inactive) | > 100 µM (inactive) | > 100 µM (inactive) | > 100 µM (inactive) | > 100 µM (inactive) | > 100 µM (inactive) | > 100 µM (inactive) | > 100 µM (inactive) | > 100 µM (inactive) | 
N#Cc1nc(-c2cnccn2)oc1N |  |  | > 100 µM (inactive) | > 100 µM (inactive) |  |  | > 100 µM (inactive) |  | > 100 µM (inactive) |  | > 100 µM (inactive) |  | > 100 µM (inactive) | > 100 µM (inactive) |  | > 100 µM (inactive) | > 100 µM (inactive) | > 100 µM (inactive) | > 100 µM (inactive) | 
C=Cc1ccccc1C1(O)C=CC(OC)(OC)C=C1 | 13.5 µM (inactive) | 17.8 µM (inactive) | 21.4 µM (inactive) | 3.25 µM (inactive) | 4.81 µM (inactive) | 18.5 µM (inactive) | 6.89 µM (inactive) | 8.57 µM (inactive) | 0.617 µM (active) | 2.72 µM (inactive) |  | 10.8 µM (inactive) | 13.8 µM (inactive) | 4.97 µM (inactive) | 3.05 µM (inactive) | 2.94 µM (inactive) | 11.8 µM (inactive) | 4 µM (inactive) | 3.4 µM (inactive) | 
COCCN(C(=O)c1ccccc1)C1CCC2(SCCS2)c2[nH]c3ccccc3c21 (stereo not drawn) | 36.2 µM (inactive) | 42.7 µM (inactive) | 29.4 µM (inactive) | 79.1 µM (inactive) | 30.2 µM (inactive) | 51.4 µM (inactive) | 74 µM (inactive) | 29.6 µM (inactive) | 28.5 µM (inactive) | 85.5 µM (inactive) |  | 37.7 µM (inactive) | 22.9 µM (inactive) | 20.7 µM (inactive) | 51.2 µM (inactive) | 37.5 µM (inactive) | 59.2 µM (inactive) | 18.5 µM (inactive) | 37.8 µM (inactive) | 
COc1cc(/C=C2\N=C(c3ccccc3)N(c3cc4cc(Sc5ccccc5)ccc4[nH]3)C2=O)ccc1O | 1.43 µM (inactive) |  |  |  | 3.13 µM (inactive) | 5.82 µM (inactive) | > 50 µM (inactive) | 2.36 µM (inactive) | > 50 µM (inactive) | 5.14 µM (inactive) | 1.07 µM (active) | 2.35 µM (inactive) | 2.54 µM (inactive) | 5.02 µM (inactive) |  | 0.255 µM (active) | 14.8 µM (inactive) | 2.49 µM (inactive) | 2.11 µM (inactive) | 13.6 µM (inactive)
CCCCC(=O)OC[n+]1ccc2c(C)c3[nH]c4ccccc4c3c(C)c2c1 | 1.46 µM (inactive) | 0.676 µM (active) | 0.217 µM (active) | 1.21 µM (inactive) | 0.526 µM (active) | 0.433 µM (active) | 1.32 µM (inactive) | 0.0275 µM (active) | 0.446 µM (active) | 0.526 µM (active) | 0.484 µM (active) | 0.535 µM (active) | 1.39 µM (inactive) | 0.297 µM (active) | 1.22 µM (inactive) | 0.18 µM (active) | 1.43 µM (inactive) | 0.0775 µM (active) | 0.221 µM (active) | 
CC(C)n1c(=O)c2nn3c(=O)n(C(C)C)c(=O)c3nn2c1=O | > 100 µM (inactive) | > 100 µM (inactive) | > 100 µM (inactive) | > 100 µM (inactive) | > 100 µM (inactive) | > 100 µM (inactive) | > 100 µM (inactive) | > 100 µM (inactive) | > 100 µM (inactive) | > 100 µM (inactive) | > 100 µM (inactive) | > 100 µM (inactive) | > 100 µM (inactive) | > 100 µM (inactive) | > 100 µM (inactive) | > 100 µM (inactive) | > 100 µM (inactive) | > 100 µM (inactive) | > 100 µM (inactive) | 
COC(=O)C(N)CCCC(N)C(=O)NC(C)C(=O)NC(CCC(=O)NCCCNc1ccc([N+](=O)[O-])c2[nH]c3ccccc3c(=O)c12)C(N)=O (stereo not drawn) |  | 6.24 µM (inactive) |  | 10 µM (inactive) | 6.07 µM (inactive) | 6.82 µM (inactive) | 10.2 µM (inactive) | 3.59 µM (inactive) | 4.91 µM (inactive) |  |  | 3.85 µM (inactive) | 11.7 µM (inactive) | 9.55 µM (inactive) | 10.8 µM (inactive) |  | 8.79 µM (inactive) |  | 2.33 µM (inactive) | 12.7 µM (inactive)
COc1ccc(C2=C(OC(C)=O)c3cccn3-c3ccc(Cl)cc3S2)cc1 | 6.58 µM (inactive) | 3.05 µM (inactive) |  | > 10 µM (inactive) |  | 5.43 µM (inactive) | 4.75 µM (inactive) |  | 3.63 µM (inactive) |  | 2.13 µM (inactive) | 5.66 µM (inactive) | 4.93 µM (inactive) | 9.44 µM (inactive) |  | 3.35 µM (inactive) | 4.3 µM (inactive) | 2.34 µM (inactive) |  | 
Cc1[nH]n(-c2nc3c(c(=O)[nH]2)CCCC3)c(=O)c1CCO | > 100 µM (inactive) | > 100 µM (inactive) | > 100 µM (inactive) | > 100 µM (inactive) | > 100 µM (inactive) | > 100 µM (inactive) | > 100 µM (inactive) | > 100 µM (inactive) | > 100 µM (inactive) | > 100 µM (inactive) | > 100 µM (inactive) | > 100 µM (inactive) | > 100 µM (inactive) | > 100 µM (inactive) | > 100 µM (inactive) | > 100 µM (inactive) | > 100 µM (inactive) | > 100 µM (inactive) | > 100 µM (inactive) | 
